These results are taken from paper PMC9549030, “Structural basis for specific inhibition of the deubiquitinase UCHL1” (Nature Communications, 2022).

One data set relates to Cathepsin C. Details: method as in SI-Ref-4. The following applies: ref SI-Ref-4; cited from earlier work.
The subject of data set [1] is monoubiquitin in U-87 MG cells. The data set is described as follows: Quantification of monoubiquitin levels. The note with it: 48 h, independent experiments. It is filed as cell-based, human. As for the experimental part:
U-87 MG cells (5 × 10^5/well) were seeded in six-well plates and cultivated for 8 h. Cells were transfected with siRNA as described above. On the next day, cells were cultured in fresh media supplemented with either compounds (final conc. 5 µM) or DMSO, where indicated, for a further 48 h. The media was changed every 24 h to a fresh medium supplemented with compounds (final conc. 5 µM) or DMSO. […] Monoubiquitin band intensities were first normalized to α-tubulin or total protein (Fast Green FCF, TCI) and subsequently normalized to the intensities of monoubiquitin bands in the sample treated with DMSO or siScr (where no DMSO was used) which was set to “1”.

For data set [2], the target named is T1, UCHL1 (Homo sapiens, UniProt P09936).
T1 sequence (P09936 1-223): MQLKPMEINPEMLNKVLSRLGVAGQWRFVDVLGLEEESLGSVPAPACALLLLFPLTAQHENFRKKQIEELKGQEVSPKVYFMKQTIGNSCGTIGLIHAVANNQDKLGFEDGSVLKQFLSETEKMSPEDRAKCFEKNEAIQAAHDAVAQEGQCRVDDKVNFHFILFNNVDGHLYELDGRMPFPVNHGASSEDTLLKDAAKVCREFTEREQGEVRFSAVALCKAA
Kind of data set: Thermal shift assay. It is filed as binding. The following applies: UCHL1 1 µM, 1 h, replicates. As to the method: Reactions were performed in white 96-well PCR plates (Bio-Rad). UCHL1 was diluted in thermal shift buffer (1x PBS, 5 mM DTT) to a 4x concentration of 4 µM. The protein was then mixed with 4x compound dissolved in thermal shift buffer in a 1:1 ratio. To each well was added 20 µL of DUB-Inhibitor solution, followed by 1 h incubation time. To each well was then added 20 µL 4x SYPRO Orange in thermal shift buffer. After sealing the plates with a transparent film, thermal denaturation (gradient: 20–90 °C; Increment: 0.3 °C, hold for 5 s before read) was performed and monitored by a Bio-Rad Connect cycler.

The subject of a further data set is HEK293 cells proteome. Kind of data set: Identification of probe-labeled proteins with mass spectrometry (pulldown, other proteins). The following applies: 1 µM, vs DMSO.
The next data set deals with HEK293 cells. The data set is described as follows: Cell growth and viability assay (confluency, propidium iodide). It is filed as cell-based, human. The note with it: up to 5 µM, up to 72 h. As for the experimental part: (§1) HEK293 cells (5 × 10^3/well) or U-87 MG cells (5.5 × 10^3/well) were seeded into 96-well dishes. The following day cells were treated with the compounds at varying concentrations and propidium iodide at 20 µg/mL. The plates were immediately transferred to the Incucyte S3. Bright-field and red fluorescent images were automatically captured at 1 or 2 h intervals for 72 h with 10x magnification. The confluency of cells and the number of PI-positive cells was determined using the Incucyte masking program.

The subject of another data set is U-87 MG cells. The description is as above. The data set is classed as cell-based, human. The following applies: up to 5 µM, up to 72 h. As to the method: as §1
The target in data set [3] is T1, UCHL1. The data set is described as follows: Ub-Rhodamine (Ubiquitin rhodamine cleavage) assay. It is filed as biochemical. The following applies: 1 h preincubation.
The next data set relates to T2, UCHL1 in HEK293 cells.
T2 construct: Western blot analysis of endogenous UCHL1 labeled with HA-Ub-VS after treatment of HEK293 cells; endogenous in cells; host or cells: HEK293
The data set is described as follows: Cellular Ub-probe (HA-Ub-VS) competition, inhibition of cellular UCHL1. The data set is classed as cell-based, human. The note with it: HEK293 cells; 24 h. As to the method:
Proteins were transferred to a polyvinylidene fluoride (PVDF, only experiments in Fig. 4e and Supplementary Fig. 7e, f) or nitrocellulose (all other experiments) membrane using a Trans-Blot Turbo system (Bio-Rad, 1.3 A, 25 V, 10 min). The membranes were blocked with 5% (m/v) nonfat milk in PBS-T buffer and incubated with indicated primary antibodies (anti-UCHL1, 1:1000, Cell Signaling, D3T2E; anti-PARK7, 1:1000, Cell Signaling, D29E5; anti-Tubulin, 1:4000, Sigma, T6199; anti-Hemagglutinin, 1:1000, BioLegend, 16B12; anti-flag, 1:2000, Sigma, F3165; anti-Ubiquitin, 1:1000, Cell Signaling, P4D1; anti-Ubiquitin, 1:300, Santa Cruz, P4D1, sc-8017; anti-UCHL3, 1:1000, Proteintech, 12384-1-AP) overnight. Then the membranes were incubated with the respective secondary antibody (anti-mouse,1:5000, Sigma, NXA931; anti-rabbit, 1:5000, Sigma, GENA934) coupled to horseradish peroxidase. The chemiluminescent reaction was initiated using a Clarity Western ECL substrate (Bio-Rad) and images were taken on a ChemiDoc MP Imaging System (Bio-Rad).
The total protein concentration was adjusted to 2 mg/ml by diluting each sample with ABP lysis buffer. A final concentration of 1 µM HA-Ub-VS probe was added, followed by incubation for 30 min at 37 °C. The labeling reaction was quenched by the addition of 4x LDS sample buffer. The samples were separated via SDS-PAGE and further analyzed via western blotting as described above.

Data set [4] addresses T1, UCHL1. Kind of data set: Identification of probe-labeled proteins with mass spectrometry (pulldown enrichment). The following applies: HEK293 cells; 1 µM; 24 h.
Description: Cells were cultured, treated with a compound, and lysed as described above. The cell lysate was diluted to a protein concentration of 2 mg/mL with ABP lysis buffer. 1 µL of each click reagent (see above) were added to each sample, followed by an incubation period of one hour at room temperature with protection from light. The sample volume was adjusted to 1000 µL with PBS and 30 µL of a NeutrAvidin (Thermo Fisher) bead slurry (prewashed 3x with PBS) were added to each sample. The samples were incubated for one hour to overnight on a rotator at 15 rpm at 4 °C. Beads were pelleted by centrifugation, the supernatant was discarded, and the beads were washed six times (1x with ½x lysis buffer, followed by five washes with PBS). After removing the washing solution completely, the beads were subjected to reduction with dithiothreitol (1 mM), alkylation with chloroacetamide (5 mM) and on-bead digestion with first LysC (Serva Biotech, 1 h, 37 °C), followed by trypsin (Sigma Aldrich, 1 h, overnight). Tryptic peptides were desalted with C18 StageTips and analyzed by nano-HPLC-MS/MS.
An Ultimate 3000 RSLC nano-HPLC system and a Hybrid-Orbitrap mass spectrometer (Q Exactive Plus) equipped with a nano-spray source (Thermo Fisher Scientific) was used. The protein fragments were enriched on a C18 PepMap 100 column (5 μm, 100 Å, 300 μm ID * 5 mm, Dionex) using 0.1% TFA, at a flow rate of 30 μL/min, for 5 min and separated on a C18 PepMap 100 column (3 μm, 100 Å, 75 μm ID × 50 cm) using a linear gradient (5–30% ACN/H2O + 0.1% formic acid over 90 min) with a flow rate of 300 nL/min. […] Signals in the mass range of m/z 300 to 1650 were acquired at a resolution of 70,000 for the full scan, followed by ten high-energy collision-dissociation (HCD) MS/MS scans of the most intense at least doubly charged ions at a resolution of 17,500. Proteins were relatively quantified by using MaxQuant[60] v.2.0.3.1, including the Andromeda search algorithm and searching the Homo sapiens reference proteome of the UniProt database. Briefly, an MS/MS ion search was performed for enzymatic trypsin cleavage, allowing two missed cleavages. Carbamidomethylation was set as a fixed protein modification, and oxidation of methionine and acetylation of the N-terminus were set as variable modifications. The mass accuracy was set to 20 parts per million (ppm) for the first search and to 4.5 ppm for the second search. The false discovery rates for peptide and protein identification were set to 0.01. Only proteins for which at least two peptides were quantified were chosen for further validation. Relative quantification of proteins was performed by using the label-free quantification algorithm implemented in MaxQuant. Statistical data analysis of pulldown samples was performed using Perseus[61] v.1.6.15.0, including proteins which were identified in at least four of the five biological replicates which were used per condition. Label-free quantification (LFQ) intensities were log-transformed (log2); replicate samples were grouped together. Pairwise comparisons of groups were performed separately. Missing values were imputed using small normally distributed values (width 0.3, downshift 1.8) and a two-sided t-test (s0 = 5, FDR = 0.001) was performed.
A further data set deals with Prolyl oligopeptidase. On the set-up: method as in SI-Ref-8. The following applies: ref SI-Ref-8; cited from earlier work.
A further data set has as its target Caspase 1. On the set-up: method as in SI-Ref-5. The following applies: ref SI-Ref-5; cited from earlier work.
In a further data set the test system is Cathepsin K. The following applies: ref SI-Ref-7; cited from earlier work.

Where “and” joins values, the source holds several entries; their conditions need not be identical. Identical values can stand only once. Entries after “also recorded” stand apart in the source; their conditions may differ.

Description for HEK293 cells proteome: Cells were cultured, treated with a compound, and lysed as described above. The cell lysate was diluted to a protein concentration of 2 mg/mL with ABP lysis buffer. 1 µL of each click reagent (see above) were added to each sample, followed by an incubation period of one hour at room temperature with protection from light. The sample volume was adjusted to 1000 µL with PBS and 30 µL of a NeutrAvidin (Thermo Fisher) bead slurry (prewashed 3x with PBS) were added to each sample. The samples were incubated for one hour to overnight on a rotator at 15 rpm at 4 °C. […] Tryptic peptides were desalted with C18 StageTips and analyzed by nano-HPLC-MS/MS.
An Ultimate 3000 RSLC nano-HPLC system and a Hybrid-Orbitrap mass spectrometer (Q Exactive Plus) equipped with a nano-spray source (Thermo Fisher Scientific) was used. […] Proteins were relatively quantified by using MaxQuant[60] v.2.0.3.1, including the Andromeda search algorithm and searching the Homo sapiens reference proteome of the UniProt database. […] Only proteins for which at least two peptides were quantified were chosen for further validation. Relative quantification of proteins was performed by using the label-free quantification algorithm implemented in MaxQuant. […] Label-free quantification (LFQ) intensities were log-transformed (log2); replicate samples were grouped together. […]

The term IC50 denotes the midpoint of a concentration-inhibition curve. Consider `N#Cc1ccc(-c2ccc(C[C@@H](C#N)NC(=O)C3(N)CCOCC3)cc2)cc1` [AZD5248], for which the IC50 in the data set on Cathepsin C was 2.9 nM.

Take `C#CCCCNC(=O)[C@H]1CCN(C#N)C1` [GK16S]: the “monoubiquitin intensity normalized to DMSO (= 1)” value was 1.022 and 1.336 and 1.231 and 0.8547 in data set [1] (siSCr, 5 µM); 1.049 and 0.9228 and 0.9331 and 0.7832 and 1.05 and 0.7905 in data set [1] (siUCHL3, 5 µM). Moreover, the “melting temperature (Tm) of UCHL1” value was 53.4 and 53.1 at UCHL1 [2] (compound 1.25 µM); 53.4 and 53.1 on UCHL1 [2] (compound 2.5 µM); 53.1 and 53.4 at UCHL1 [2] (compound 5 µM). Further, in the data set on HEK293 cells proteome, the “Fold change log2, protein 02. Sep” value is given as 0.4147. Also, the “Fold change log2, protein 07. Sep” value in the data set with HEK293 cells proteome worked out at 0.472. Moreover, the “growth arrest and apoptosis” value in the data set with HEK293 cells is recorded as “neither GK13S nor GK16S showed growth arrest nor apoptosis”. Further, the “toxicity (cell growth and viability)” value with U-87 MG cells was “nontoxic”. Further, on UCHL1 [3] (read-out: IC50 (UCHL1)), the half-inhibitory concentration (IC50) is above 100000 nM. Besides, the remaining activity at 0.00050402 µM on UCHL1 [3] (compound 0.50402 nM, read-out: UCHL1 activity, data point mean) came to 90.8%. The remaining activity at 0.00151206 µM on UCHL1 [3] (compound 1.51206 nM, read-out: UCHL1 activity, data point mean) was found to be 89.7%. The remaining activity at 0.00453618 µM at UCHL1 [3] (compound 4.53618 nM, read-out: UCHL1 activity, data point mean) was determined as 99.1%. Further, the remaining activity at 0.0136085 µM at UCHL1 [3] (compound 13.6085 nM, read-out: UCHL1 activity, data point mean) amounted to 96.8%. In addition, the remaining activity at 0.0408257 µM on UCHL1 [3] (compound 40.8257 nM, read-out: UCHL1 activity, data point mean) turned out to be 83.7%. Besides, the remaining activity at 0.122477 µM on UCHL1 [3] (compound 122.477 nM, read-out: UCHL1 activity, data point mean) came to 87.4%. Moreover, the remaining activity at 0.367431 µM at UCHL1 [3] (compound 367.431 nM, read-out: UCHL1 activity, data point mean) stood at 90.4%. Moreover, the remaining activity at 1.10229 µM at UCHL1 [3] (compound 1102.29 nM, read-out: UCHL1 activity, data point mean) was found to be 91.3%. Moreover, the remaining activity at 3.30688 µM on UCHL1 [3] (compound 3306.88 nM, read-out: UCHL1 activity, data point mean) came out at 90.9%. Moreover, the remaining activity at 30.581 µM at UCHL1 [3] (compound 30581 nM, read-out: UCHL1 activity, data point mean) amounted to 81%. Moreover, at UCHL1 [3] (compound 100000 nM, read-out: UCHL1 activity, data point mean), the remaining activity at 100 µM was found to be 68.2%. In the data set with UCHL1 in HEK293 cells, the “inhibition of cellular UCHL1” value is reported as “did not equate to a detectable inhibition; also recorded: does not inhibit cellular UCHL1”. The “enrichment factor of UCHL1 (log2, vs DMSO)” value on UCHL1 [4] amounted to 3.

Turning to `N#C[C@@H]1CCCN1C(=O)[C@@H]1CCCN1C(=O)CCCc1ccccc1` [KYP-2047], the IC50 on Prolyl oligopeptidase is 3.9 nM.

On to `CC(C)(C)[C@H](NC(=O)c1ccc(N)c(Cl)c1)C(=O)N1CCC[C@H]1C(=O)N[C@H](C#N)CC(=O)O` [ML132], for which the IC50 on Caspase 1 was 0.023 nM.

In the case of `CC(C)(F)C[C@H](N[C@@H](c1ccc(-c2ccc(S(C)(=O)=O)cc2)cc1)C(F)(F)F)C(=O)NC1(C#N)CC1` [Odanacatib], in the data set on Cathepsin K, the IC50 was 0.2 nM.
